Patent publication US9220672B2, “Peptide for use in the treatment of skin conditions” (ORGANOBALANCE GMBH, priority 2011, dated 2015)

Legend:
Type in all cases: cell-based
S. epidermidis [1] = experiment: S. epidermidis growth stimulation, in-vitro hole plate assay on tellurite-TSA; conditions: 40 μl of 1 mg/ml solution per well, 35° C., 24 h, vs water control
Protocol: To this effect, an S. epidermidis growth simulation assay was employed, using potassium tellurite as the growth indicator, observed in the assay as brown zones. An S. epidermidis log phase culture at 1:200 (containing approximately 1×10^7 cfu/ml of bacteria) was used as the working culture in the experiment.
The working culture was plated onto tellurite-TSA, after which 5 mm diameter holes were respectively punched into the agar for forming the testing wells. 40 μl of a solution containing the tetrapeptide at a concentration of 1 mg/ml were then added to a first and second well, and the same volume of water was added as the control to a third well. The Petri dish was then incubated at 35° C. for 24 h.

S. epidermidis [2] = experiment: S. epidermidis in vitro liquid assay (microtiter plate, OD600nm); conditions: SCD-bouillon (1:2), pH 6.5, vs control devoid of additive
Protocol: A Microtiter plate having wells with a respective volume of 200 μl was used for the S. epidermidis in vitro liquid assay. To this effect, a 24 h cell culture of S. epidermidis was diluted 1:200 thus affording an optical density OD600nm of 0.06 in SCD-bouillon (1:2). The samples used in the experiment further contained the inventive tetrapeptide H-Lys(H-Asp-NH2)-Ala-Glu-NH2 in respective concentrations of 1 mg/ml and 0.2 mg/ml. As control assay, samples containing 1 mg/ml of a mixture containing Alanine, Glutamine, Lysine, and Asparagine in equal parts and samples containing no further components in addition to S. epidermidis were respectively employed. The pH of all of the samples was 6.5.

S. aureus = S. aureus in vitro liquid assay (microtiter plate, OD600nm); conditions: 1 mg/ml, SCD-bouillon (1:2), pH 6.5, vs control devoid of additive
Protocol: An S. aureus in vitro liquid assay was performed on a Microtiter plate having wells with a respective volume of 200 μl. To this effect, a 24 h cell culture of S. aureus was diluted 1:500 thus affording an optical density OD600nm of 0.05 in SCD-bouillon (1:2). One of the samples used in the experiment further contained the inventive tetrapeptide H-Lys(H-Asp-NH2)-Ala-Glu-NH2 in a concentration of 1 mg/ml. The pH of the samples was 6.5.

Structure (SMILES): CC(NC(=O)C(N)CCCCNC(=O)CC(N)C(N)=O)C(=O)NC(CCC(=O)O)C(N)=O (stereo not drawn) [H-Lys(H-Asp-NH2)-Ala-Glu-NH2]
- growth of S. epidermidis (tellurite growth indicator zone around well) (S. epidermidis [1]): able to stimulate the growth
- growth of S. epidermidis (tellurite growth indicator zone around well) (S. epidermidis [1]; listed as inventive tetrapeptide): clearly stimulated
- growth of S. epidermidis (optical density OD600nm over incubation time) (S. epidermidis [2]; 0.2 mg/ml): stimulation is already apparent
- growth of S. epidermidis (optical density OD600nm over incubation time) (S. epidermidis [2]; 1 mg/ml): clearly stimulates the growth
- growth of S. aureus (optical density OD600nm over incubation time) (S. aureus): clearly inhibited
